Common to all, as to assay type: biochemical
Holding throughout (details): thiopeptolide substrate Ac-Pro-Leu-Gly-thioester-Leu-Leu-Gly-OEt

The target of assay [1] is T1, MMP-13CD (collagenase-3 catalytic domain) (Homo sapiens, UniProt P45452).
T1 construct: Experiments were carried out with the catalytic domains of the proteinases
Put plainly: MMP-13CD inhibition, thiopeptolide substrate. As to the method:
(§1) Experiments were carried out with the catalytic domains of the proteinases. […] IC50 values were determined using a thiopeptolide substrate, Ac-Pro-Leu-Gly-thioester-Leu-Leu-Gly-OEt (Ye Q.-Z., Johnson L. L., Hupe D. J., and Baragi V., “Purification and Characterization of the Human Stromelysin Catalytic Domain Expressed in Escherichia coli”, Biochemistry, 1992;31:11231-11235).

In assay [2] the target is T2, MMP-3CD (stromelysin-1 catalytic domain) (Homo sapiens, UniProt P08254).
T2 construct: Experiments were carried out with the catalytic domains of the proteinases
Briefly: MMP-3CD inhibition, thiopeptolide substrate. As to the method:
as §1

In assay [3] the target is MMP-2CD (gelatinase A catalytic domain) (Homo sapiens, UniProt P08253). Put plainly: MMP-2CD inhibition, thiopeptolide substrate. As to the method:
as §1

SMILES strings stand for the structures.

T2 sequence (P08254 100-272 limits assumed): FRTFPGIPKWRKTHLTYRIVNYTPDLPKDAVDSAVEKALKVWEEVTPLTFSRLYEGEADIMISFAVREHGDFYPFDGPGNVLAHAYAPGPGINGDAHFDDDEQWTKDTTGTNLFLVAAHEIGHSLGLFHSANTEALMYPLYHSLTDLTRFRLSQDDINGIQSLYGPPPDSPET

Usually IC50 stands for the midpoint of a concentration-inhibition curve. A lower IC50 goes with greater potency. In the case of `O=C(O)CCC(=NO)c1ccc(-n2cccn2)cc1` [Example 1, 4-Hydroxyimino-4-(4-pyrazol-1-yl-phenyl)butyric Acid], the results for the IC50 in assay [1], in assay [2] and in assay [3] were 10.6 µM, 13 µM and 1.25 µM, respectively.

`O=C(O)CCC(=O)c1ccc(-c2ccc(Cl)s2)cc1` [Example 2, 4-[4-(5-Chloro-thiophen-2-yl)-phenyl]-4-oxo-butyric Acid]: the IC50 in assay [1] stood at 1.1 µM; in assay [2] it was 0.298 µM; in assay [3] it was 0.0639 µM.

On to `O=C(O)CCC(=NO)c1ccc(-c2ccc(Cl)s2)cc1` [Example 3], for which the IC50 in assay [1] is 0.12 µM; in assay [2] it was 0.105 µM; in assay [3], 0.014 µM.

Values taken from patent US6399612B1, “Heteroaryl butyric acids and their derivatives as inhibitors of matrix metalloproteinases” (Warner-Lambert Company, priority 1997, dated 2002).
